Assay results from paper PMC11997541, “Synthesis and Biological Activity of Ultrashort Antimicrobial Peptides Bearing a Non‐Coded Amino Acid” (Journal of Peptide Science, 2025).
Residues, ends and D or L forms follow the SMILES beside them.

What was measured:
S. ent. ATCC 13076 = test: Kirby–Bauer disk diffusion; format: cell-based, Salmonella enterica; conditions: 20 h; for diameter of growth inhibition, S. ent. ATCC 13076: 100 μg peptide per 6 mm disk, Mueller–Hinton pH 7.2–7.4, 37°C, — read as no inhibition
Procedure: (§1) The antibacterial activity was tested on Gram‐positive ( Staphylococcus aureus ATCC 25923, Streptococcus pyogenes ATCC 19615, Listeria monocytogenes ATCC 7644, Bacillus subtilis ATCC […], Enterococcus faecalis ATCC 29212, E. faecalis ATCC 51299, and some clinical isolates, Streptococcus mitis , Streptococcus oralis , S. pyogenes Group A and Streptococcus Group G), Gram‐negative ( Klebsiella aerogenes ATCC 13048, Salmonella enterica ATCC […], Escherichia coli ATCC 25922, Pseudomonas aeruginosa ATCC 27853, Acinetobacter baumannii ATCC […], Klebsiella pneumoniae ATCC 13883, Proteu mirabilis ATCC 14153) bacterial strains, and Saccharomyces cerevisiae ATCC 9763, according to the standardized disk diffusion Kirby–Bauer method.
(§2) Peptide solutions in DMSO were adsorbed into paper disks (Macherey‐Nagel 615, Germany) of 6 mm in diameter. Every disk was loaded with 100 μg of peptide. The bacteria inoculum was of 0.5 Mc Farland, corresponding to 1–2 x 10^8 CFU/mL. The tests were carried out on Mueller–Hinton culture medium at pH 7.2–7.4 with incubation at 37°C for 20 h. Peptide activity was determined by measuring the diameters (in millimeters) of bacteria/fungi growth inhibition around the paper disks.

[1] = no CD signal in phosphate buffer (PB) pH 7.4, peptide 1 mM, room temperature
Procedure: Electronic CD curves in the amide region (190–260 nm) were obtained on a Jasco (Tokyo, Japan) model J‐1500 spectropolarimeter. A fused quartz cell of 0.02 cm pathlength (Hellma, Mühlheim, Germany) was used to record spectra in phosphate buffer pH 7.4 (PB), and aqueous sodium dodecyl sulfate (SDS, 30 mM). Spectra were collected at room temperature with peptide concentrations of 1 mM. After baseline subtraction, the values recorded were transformed into [θ]T, the total molar ellipticity (deg × cm^2 × dmol^−1) by means of the JASCO software Spectra Manager.

[2] = Peptide stability in serum; format: in vitro ADME; conditions: human serum in HEPES 25 mM pH 7.6, 37°C, over 24 h, HPLC or HPLC–MS, triplicate
Procedure: The peptides were dissolved in DMSO at a concentration of 5 mg/mL. In Eppendorf tubes, 1 mL of HEPES buffer (25 mM, pH = 7.6) was temperature equilibrated at 37°C before adding 250 μL of human serum and 20 μL of peptide solution. The reaction was monitored for 24 h. At fixed intervals, 100 μL of the solution was withdrawn and added with 200 μL of absolute ethanol. The sample was kept on ice for 15 min and then centrifuged at 16,000 g for 5 min. Finally, the supernatant solution was analyzed by HPLC or HPLC–MS..
A peptide of similar length, not resistant to degradation in serum, was used as a positive test. The peptide sequence is as follows: Tyr‐Ser‐Ser‐Phe‐Leu.
To verify peptide stability in buffer solution, samples containing peptide solutions, buffer, and ethanol were also analyzed. All of the degradation experiments were carried out in triplicate.

[3] = tested on: various bacterial strains, both Gram‐positive and Gram‐negative, as well as S. cerevisiae; test: Kirby–Bauer disk diffusion, whole panel; format: cell-based; conditions: 100 μg peptide per disk, 37°C, 20 h, all strains tested
Procedure: as §1, §2

| SMILES | diameter of growth inhibition, S. ent. ATCC 13076 (S. ent. ATCC 13076) [mm] | solubility in water, in words [1] | serum stability, ranking in words [2] | also measured |
| --- | --- | --- | --- | --- |
| CCCCCCCCCCCCCCCC(=O)N[C@@H](Cc1c[nH]cn1)C(=O)N[C@@H](C)C(=O)N[C@H](C)C(=O)N[C@@H](Cc1c[nH]cn1)C(N)=O [P0, Palm‐His‐Ala‐D‐Ala‐His‐NH2] (HELM PEPTIDE1{[CCCCCCCCCCCCCCCC(=O)[*:2]].H.A.[dA].H.[am]}$$$$V2.0) | 10 | poor solubility in water |  | activity against Salmonella enterica ATCC 13076, in words (S. ent. ATCC 13076; 100 μg peptide per disk, 37°C): selectively active |
| CCCCCCCCCCCCCCCC(=O)N[C@@H](Cn1ccnc1)C(=O)N[C@@H](C)C(=O)N[C@H](C)C(=O)N[C@@H](Cn1ccnc1)C(N)=O [P1, Palm‐L‐His*‐Ala‐D‐Ala‐L‐His*‐NH2] |  | poor solubility in water |  |  |
| CCCCCCCCCCCCCCCC(=O)N[C@H](Cn1ccnc1)C(=O)N[C@@H](C)C(=O)N[C@H](C)C(=O)N[C@H](Cn1ccnc1)C(N)=O [P2, Palm‐D‐His*‐Ala‐D‐Ala‐D‐His*‐NH2] |  | poor solubility in water | best candidates in terms of serum stability |  |
| CC(=O)N[C@@H](Cc1c[nH]cn1)C(=O)N[C@@H](C)C(=O)N[C@H](C)C(=O)N[C@@H](Cc1c[nH]cn1)C(=O)NCCCCCCCCCCC(N)=O [P3, Ac‐His‐Ala‐D‐Ala‐His‐Aun‐NH2] (HELM PEPTIDE1{[ac].H.A.[dA].H.[O=C(CCCCCCCCCCN[*:1])[*:2]].[am]}$$$$V2.0) |  |  |  | antimicrobial activity over the panel, in words [3]: no activity |
| CCCCCCCCCCCC(=O)N[C@@H](Cc1c[nH]cn1)C(=O)N[C@@H](C)C(=O)N[C@H](C)C(=O)N[C@@H](Cc1c[nH]cn1)C(N)=O [P6, Laur‐His‐Ala‐D‐Ala‐His‐NH2] (HELM PEPTIDE1{[CCCCCCCCCCCC(=O)[*:2]].H.A.[dA].H.[am]}$$$$V2.0) | 9 |  |  |  |
| CCCCCCCCCCCC(=O)N[C@H](Cn1ccnc1)C(=O)N[C@@H](C)C(=O)N[C@H](C)C(=O)N[C@H](Cn1ccnc1)C(N)=O [P8, Laur‐D‐His*‐Ala‐D‐Ala‐D‐His*‐NH2] |  |  | best candidates in terms of serum stability |  |
